Patent US20240294545A1 (CSPC Zhongqi Pharmaceutical Technology (Shijiazhuang) Co., …, priority 2020, published 2024)
Where two headings read alike, the source gives them in different places. Marks after values point to notes of the source that are not given here.

Assays:
[1] = target: ATM (Homo sapiens (Human), UniProt Q13315); assay: Caliper mobility shift assay for ATM; format: biochemical; settings: read-out: IC50 of inhibitory activity on ATM kinase
Experimental: 1.2 Determination of the Inhibitory Activities of Compounds on ATM: Caliper Mobility Shift Assay for ATM
To a 96-well plate, 98 μL of DMSO and 2 μL of the 10 mM stock solution were added and mixed evenly so that the concentration of the solution was 200 μM.
Based on the inhibitory rates of the compound at different concentrations, IC50 was calculated according to the formula: Y=Bottom+(Top−Bottom)/(1+(IC50/X)^HillSlope).

[2] = test system: ATM-phosphorylated KAP1; assay: Intracellular ATM-phosphorylated KAP1 level, ICW assay in MCF7 cells; format: cell-based, Human; settings: for IC50: MCF7 cells, 2 h compound, 10 Gy irradiation, further 1 h, read-out: pKAP1 IC50
Experimental: 4 Inhibition on Intracellular ATM-Phosphorylated KAP1 Level by the Compounds of the Present Disclosure: ICW Assay
• Cell: Human breast cancer cell line MCF7 • Materials and reagents:
4.2 Experimental Procedures
• (1) Cell inoculation • MCF7 cells were inoculated on a 384-well plate, 10000 cells/well (25 μL/well), and cultured overnight at 37° C. with 5% CO2. • (2) Activity detection • 1) The compound was formulated into a 100 mM solution with DMSO and then sequentially diluted with a gradient of 1:3 to yield a total of 10 concentration gradients, wherein the maximum concentration was 100 μM. • 2) 25 nL of each of the compound solutions with gradient concentrations prepared in step 1) was added to each well of the cell plate (Corning #356663) by using I-DOT One, resulting in a final concentration of 100 nM (maximum dose). • 3) The cell plate containing compound was incubated at 37° C. with 5% CO2 for 2 h. After 2 h, the cell plate was irradiated with a dose of 10 Gy, and then further incubated for 1 h. • 4) 25 μL of 8% paraformaldehyde was added to each well, followed by incubating at room temperature for 20 min. • 5) The 8% paraformaldehyde was discarded, followed by adding 0.1% TrintonX-100 and incubating at room temperature for 30 min. • 6) Odessey blocking buffer was added at 50 μL/well, followed by incubating at room temperature for 1.5 h. • 7) The Odessey blocking buffer was discarded, and then a primary antibody (Phospho-KAP1, 1:2000 dilution) was added, followed by incubating overnight at 4° C. • 8) The primary antibody was removed, followed by washing with PBS+0.1% Tween 20 for 5 times. • 9) DNA dye DRAQ5 coated with a second antibody (IRDye 800CW Goat anti-Rabbit, 1:4000 dilution) was added, followed by incubating at room temperature for 1 h. • 10) The second antibody was removed, followed by washing with PBS+0.1% Tween 20 for 5 times. • 11) PBS+0.1% Tween 20 was sucked off with Odyssey. • (3) Data analysis • 1) the relative ratio of Channel 800/Channel 700 for each well was detected. • 2) % of KAP1 phosphorylation was calculated according to the following formula:
% of KAP1 phosphorylation=[(Ratiocmpd−(Ratio)Positive)/((Ratio)Vehicle−(Ratio)Positive]*100 • (Ratio)Positive: the mean value of the test values of each positive control well in the test cell plate; • (Ratio)Vehicle: the mean value of the test values of each negative control well in the test cell plate. • 3) the IC50 of each compound was calculated and the dose-effect curve was plotted: % of KAP1 phosphorylation and log of compound's concentration were fit by using Graphpad 8.0 so as to calculate the IC50.
[formula] • X: log of compound's concentration • Y: % of KAP1 phosphorylation

[3] = test system: subcutaneous xenograft tumor of human colon cancer cell line HT-29; assay: HT-29 subcutaneous xenograft, combined with irinotecan liposome injection; format: in vivo, NU/NU mice; settings: for inhibitory effect on tumor volume and tumor weight, in words: combined with irinotecan liposome injection, compared with AZD1390; for D 16 TGI / D 16 TV (MEAN ± SD) / Tumor weight / Tumor weight inhibitory rate: compound 25 mg/kg intragastric + irinotecan liposome 10 mg/kg ip; for D 16 TGI / D 16 TV (MEAN ± SD): day 16; for Tumor weight / Tumor weight inhibitory rate: end of test
Experimental: 7 Efficacy Test of the Compounds of the Present Disclosure Combined with Irinotecan Liposome Injection on Inhibiting the Growth of Subcutaneous Xenograft Tumor of Human Colon Cancer Cell Line HT-29
7.1 Experimental Animals: NU/NU Mice, SPF, Female, 20 to 30 g.
Irinotecan liposome injection (HE072), 43 mg: 10 mL, milky white liquid, batch No. B37191202, provided by Preparation Research Institute 2 from CSPC Zhongqi Pharmaceutical Technology (Shijiazhuang) Co., Ltd., diluted to an appropriate concentration with 5% glucose injection while testing.
HT-29 cell, provided by Nanjing Kebai Biotechnology Co., Ltd.; 5A culture medium:fetal bovine serum=90%:10%, 37° C., 5% CO2.
NU/NU nude mice were subcutaneously inoculated with HT-29 human colon cancer cells. When the mean tumor volume reached about 170 mm^3 (9 days after inoculation), the animals were evenly divided into groups according to the tumor volume (d0), with 6 mice in each group. 10 mg/kg of HE072 was administered intraperitoneally once a week for 1 time. Vehicle control, 25 mg/kg of A-6, 25 mg/kg of A-46, and 25 mg/kg of AZD1390 were administered intragastrically once a day, from Monday to Thursday every week except Friday to Sunday, for 1 week (4 times). The tumor volume was measured twice a week, the body weight of mouse was weighed every day, and the data were recorded. The tumor volume (TV) was calculated according to the formula: TV=½×a×b2, wherein a and b represent the long and short diameters of tumor, respectively. Tumor growth inhibitory rate TGI (%)=[1−(Ti−T0)/(Vi−V0)]×100, wherein Ti represents the mean tumor volume of a given treatment group on a certain day; TO represents the mean tumor volume of this treatment group at the beginning of administration; Vi represents the mean tumor volume of the vehicle control group on a certain day (the same day as that in Ti); V0 represents the mean tumor volume of the vehicle control group at the beginning of administration. At the end of the test (d17), the animals were sacrificed, the tumors were stripped and weighed, and the tumor weight inhibitory rates were calculated.

[4] = test system: subcutaneous xenograft tumor of human glioblastoma LN-18; assay: LN-18 subcutaneous xenograft, combined with radiotherapy; format: in vivo, NOG mice; settings: compound 20 mg/kg intragastric qd × 5 + IR 1 Gy, day 17
Experimental: 9 Efficacy Test of the Compounds of the Present Disclosure Combined with Radiotherapy on Inhibiting the Growth of Subcutaneous Xenograft Tumor of Human Glioblastoma LN-18
9.1 Experimental Animals: NOG Mice, SPF, Female, 18 to 22 g.
LN-18 tumor cells, DMEM medium:fetal bovine serum=95%:5%, accompanied by adding 100 U/mL penicillin and 100 μg/mL streptomycin, 37° C., 5% CO2.
LN18 tumor cells resuspended in serum-free DMEM medium were inoculated subcutaneously in the right costal region of experimental animals at 1.5*10^7/0.15 mL, and the animals were grouped when the tumor grew to 100 to 150 mm^3. Radiotherapy was performed 1 h after administration of compounds.
Tumor volume: The tumor volume was measured twice a week with a vernier caliper, and the long diameter and short diameter of tumor were measured. The tumor volume was calculated as follows: tumor volume (TV)=0.5×long diameter×short diameter^2. Tumor growth inhibitory rate (TGI %) was calculated according to the tumor volume. TVXn represents the mean tumor volume on day n of the treatment group, TVX0 represents the mean tumor volume on day 0 of the treatment group, TVMn represents the mean tumor volume on day n of the control group, and TVM0 represents the mean tumor volume on day 0 of the control group.

[5] = test system: Human glioblastoma cell line LN-18; assay: LN18 cell proliferation combined with radiotherapy (CTG assay); format: cell-based;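 for IC50: readout is CTG luminescence proliferation not KAP1 phosphorylation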
Experimental: 5 Test of the Inhibitory Activities of the Compounds of the Present Disclosure Combined with Radiotherapy on LN18 Cell Proliferation
• Cell: Human glioblastoma cell line LN-18
5.2 Experimental Procedures
• (1) Cell inoculation • 1) The cell culture fluid was preheated at 37° C. • 2) A complete culture medium of LN18 cells was prepared, at a ratio of DMEM medium:FBS=95:5 (V/V). • 3) Cells were digested with trypsin, collected to serve as a cell suspension, and counted, the cell suspension was then added into a 96-well plate at 1500 cells/well and 100 μL of cell fluid/well, and three parallel wells were set. • 4) After inoculated in the plate, the cells were cultured overnight under the condition of 37° C. and 5% CO2. • (2) Compound addition and incubation • 1) AZD1390 and tested compounds, respectively, were sequentially diluted 5 times with DMSO, starting from the concentration of 10 mM and yielding the concentrations of 10, 2, 0.4, 0.08, 0.016, 0.0032, 0.00064, 0.000128, and 0.0000256 mM in turn. The compound solutions at the above concentrations were diluted 5000 times with the complete culture medium. The final 2× concentrations were in order 2000, 400, 80, 16, 3.2, 0.64, 0.128, 0.0256, and 0.00512 nM. The vehicle control was 0.02% DMSO culture fluid. • 2) A complete culture medium containing 100 μL of the compound solution was added to each well, and the final concentrations of the compounds in the wells were in order 1000, 200, 40, 8, 1.6, 0.32, 0.064, 0.0128, and 0.00256 nM. The 0.01% DMSO culture fluid was contained in the vehicle control well. After incubated with compound for 1 h, the cells were irradiated at a dose of 1 Gy. • 3) After irradiation, the plate was put into an incubator and incubated under the condition of 37° C. and 5% CO2 for 6 days. Then detection was performed by adopting CTG assay (100 μL of liquid from each well was sucked out and discarded, and 50 μL of CTG reagent was added to each well, and incubated at room temperature for 30 min, and the luminescence intensity was detected). • (3) Data analysis • 1) The Luminescence signal (RLU) of each well was detected. • 2) Proliferation inhibitory activity was calculated according to the formula: % inhibitory activity=RLUtreatment/RLUAvg(Vehicle)*100. 5.3 the Inhibitory Activities of Compounds of the Present Disclosure Combined with Radiotherapy on LN18 Cell Proliferation

ATM, sequence (Q13315 whole entry): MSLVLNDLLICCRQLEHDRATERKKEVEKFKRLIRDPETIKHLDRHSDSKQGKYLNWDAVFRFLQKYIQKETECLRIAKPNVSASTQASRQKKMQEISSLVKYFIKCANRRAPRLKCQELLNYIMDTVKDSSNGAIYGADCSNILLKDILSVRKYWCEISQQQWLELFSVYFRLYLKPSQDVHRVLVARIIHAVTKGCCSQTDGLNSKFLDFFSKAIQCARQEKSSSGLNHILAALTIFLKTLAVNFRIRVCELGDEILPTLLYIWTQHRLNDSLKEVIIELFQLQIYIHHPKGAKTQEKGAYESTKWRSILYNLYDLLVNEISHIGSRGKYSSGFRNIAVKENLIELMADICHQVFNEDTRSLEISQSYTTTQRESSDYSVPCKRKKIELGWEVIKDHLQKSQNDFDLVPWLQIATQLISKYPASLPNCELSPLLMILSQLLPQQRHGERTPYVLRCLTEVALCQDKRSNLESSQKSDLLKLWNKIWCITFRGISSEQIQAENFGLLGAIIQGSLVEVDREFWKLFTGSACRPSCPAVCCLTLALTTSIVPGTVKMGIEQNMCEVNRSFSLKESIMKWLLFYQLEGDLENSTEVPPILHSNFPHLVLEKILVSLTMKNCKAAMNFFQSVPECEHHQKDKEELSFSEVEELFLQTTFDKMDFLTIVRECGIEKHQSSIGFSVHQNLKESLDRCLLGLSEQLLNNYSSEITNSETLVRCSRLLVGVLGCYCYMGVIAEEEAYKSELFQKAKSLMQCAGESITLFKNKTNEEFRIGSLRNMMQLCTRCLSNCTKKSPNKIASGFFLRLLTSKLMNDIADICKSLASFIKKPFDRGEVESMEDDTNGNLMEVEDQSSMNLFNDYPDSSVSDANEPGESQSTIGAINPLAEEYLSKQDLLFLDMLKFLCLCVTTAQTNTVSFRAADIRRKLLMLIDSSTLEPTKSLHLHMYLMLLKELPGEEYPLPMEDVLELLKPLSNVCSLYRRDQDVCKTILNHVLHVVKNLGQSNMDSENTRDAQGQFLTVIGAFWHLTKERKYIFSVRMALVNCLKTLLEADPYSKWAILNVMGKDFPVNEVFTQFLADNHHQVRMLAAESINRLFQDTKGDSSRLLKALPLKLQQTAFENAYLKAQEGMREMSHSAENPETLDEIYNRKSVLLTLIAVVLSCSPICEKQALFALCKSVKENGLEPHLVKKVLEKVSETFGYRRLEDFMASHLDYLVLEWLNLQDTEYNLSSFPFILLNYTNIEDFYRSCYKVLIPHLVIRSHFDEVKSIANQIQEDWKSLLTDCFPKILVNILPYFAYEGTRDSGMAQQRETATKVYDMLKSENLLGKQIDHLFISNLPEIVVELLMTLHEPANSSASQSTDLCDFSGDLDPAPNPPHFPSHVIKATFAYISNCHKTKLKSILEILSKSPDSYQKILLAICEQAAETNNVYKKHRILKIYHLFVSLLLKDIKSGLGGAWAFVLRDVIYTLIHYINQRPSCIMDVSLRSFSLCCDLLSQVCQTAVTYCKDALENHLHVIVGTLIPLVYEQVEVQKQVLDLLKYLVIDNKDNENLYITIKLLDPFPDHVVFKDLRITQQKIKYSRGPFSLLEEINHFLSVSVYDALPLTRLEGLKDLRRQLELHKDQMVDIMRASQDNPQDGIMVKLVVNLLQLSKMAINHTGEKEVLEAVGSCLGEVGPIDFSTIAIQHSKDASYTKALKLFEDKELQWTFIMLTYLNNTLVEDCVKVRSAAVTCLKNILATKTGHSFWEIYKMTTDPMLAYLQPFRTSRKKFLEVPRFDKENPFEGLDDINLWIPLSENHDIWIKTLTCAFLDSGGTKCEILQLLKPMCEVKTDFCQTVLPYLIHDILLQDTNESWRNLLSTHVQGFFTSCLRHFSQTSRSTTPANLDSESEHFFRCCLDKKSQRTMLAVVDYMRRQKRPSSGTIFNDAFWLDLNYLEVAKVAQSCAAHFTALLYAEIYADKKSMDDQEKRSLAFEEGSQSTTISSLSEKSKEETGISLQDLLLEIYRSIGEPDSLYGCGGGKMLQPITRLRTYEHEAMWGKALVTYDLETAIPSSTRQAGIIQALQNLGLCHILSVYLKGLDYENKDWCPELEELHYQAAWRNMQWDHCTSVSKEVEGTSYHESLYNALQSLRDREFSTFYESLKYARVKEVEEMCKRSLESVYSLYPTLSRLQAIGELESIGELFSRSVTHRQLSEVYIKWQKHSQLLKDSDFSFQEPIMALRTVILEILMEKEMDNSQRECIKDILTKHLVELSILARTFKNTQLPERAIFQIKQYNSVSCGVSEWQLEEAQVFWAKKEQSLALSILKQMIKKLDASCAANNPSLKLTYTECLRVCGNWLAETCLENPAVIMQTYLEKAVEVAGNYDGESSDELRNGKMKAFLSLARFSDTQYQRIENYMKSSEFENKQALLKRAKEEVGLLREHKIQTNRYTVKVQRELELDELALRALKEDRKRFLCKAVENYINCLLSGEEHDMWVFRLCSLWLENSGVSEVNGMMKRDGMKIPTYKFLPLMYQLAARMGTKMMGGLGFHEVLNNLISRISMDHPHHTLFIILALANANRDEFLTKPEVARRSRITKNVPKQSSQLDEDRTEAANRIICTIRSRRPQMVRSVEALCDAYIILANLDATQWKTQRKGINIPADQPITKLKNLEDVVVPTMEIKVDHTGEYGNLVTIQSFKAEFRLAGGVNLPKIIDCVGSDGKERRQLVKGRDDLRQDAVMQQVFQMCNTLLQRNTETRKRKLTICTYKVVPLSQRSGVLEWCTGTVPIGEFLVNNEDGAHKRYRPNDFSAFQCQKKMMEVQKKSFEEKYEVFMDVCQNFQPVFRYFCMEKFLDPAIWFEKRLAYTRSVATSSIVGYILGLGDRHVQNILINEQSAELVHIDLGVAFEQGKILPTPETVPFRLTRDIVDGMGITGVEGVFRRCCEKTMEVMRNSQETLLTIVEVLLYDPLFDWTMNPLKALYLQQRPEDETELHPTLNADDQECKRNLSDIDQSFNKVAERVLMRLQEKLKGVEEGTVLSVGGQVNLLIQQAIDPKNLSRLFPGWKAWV

Compound | IC50 [1] | IC50 [2] | inhibitory effect on tumor volume and tumor weight, in words [3] | D 16 TGI [3] | D 16 TV (MEAN ± SD) [3] | Tumor weight [3] | Tumor weight inhibitory rate [3] | IC50 ([2]; Homo sapiens, light or radiation study) | D 17 TGI [4] | D 17 TV (MEAN ± SD) [4] | inhibitory effect on ATM KAP phosphorylation, in words ([2]; cellular level, compared with AZD1390 as positive control) | IC50 ([5]; LN18 cells, 1 Gy irradiation 1 h after compound, 6 days, CTG) | inhibitory effect on LN18 cell proliferation, in words ([5]; combined with radiotherapy, compared with AZD1390 as positive control)
C[C@@H]1CNc2c(-c3ccc(OCCCN4CCCCC4)nc3)ccc3ncc4c(c23)n1c(=O)n4C [Example A-199, (R)-2,10-dimethyl-7-(6-(3-(piperidin-1-yl)propoxy)pyridin-3-yl)-2,8,9,10-tetrahydro-1H-2,4,8,10a-tetraazanaphtho[2,1,8-cde]azulen-1(2H)-one] | 0.92 nM | 0.78 nM | – | – | – | – | – | – | – | – | – | – | –
CN(C)CCCOc1ccc(-c2c(F)cc3ncc4c5c3c2OCC(C)(C)n5c(=O)n4C)cn1 [Example A-46, 7-(6-(3-(dimethylamino)propoxy)pyridin-3-yl)-6-fluoro-2,10,10-trimethyl-9,10-dihydro-8-oxa-2,4,10a-triazanaphtho[2,1,8-cde]azulen-1(2H)-one] | 0.52 nM | – | higher than those of AZD1390 | 102.2% | 149.5 ± 67.4***^### mm^3 | 0.12 ± 0.06 g | 82.0% | – | – | – | – | – | –
Cn1c(=O)n2c3c4c(c(-c5ccc(OCCCN6CCCCC6)nc5)c(F)cc4ncc31)NCC21CCC1 [Example A-192, 6-fluoro-2-methyl-7-(6-(3-(piperidin-1-yl)propoxy)pyridin-3-yl)-8,9-dihydrospiro[2,4,8,10a-tetraazanaphtho[2,1,8-cde]azulene-10,1′-cyclobutan]-1(2H)-one] | 0.53 nM | – | – | – | – | – | – | 1.44 nM | 79.6% | 323 ± 114***^# mm^3 | – | – | –
CC1CCN(CCCOc2ccc(-c3ccc4ncc5c6c4c3NC[C@H](C)n6c(=O)n5C)cn2)CC1 [Example A-211, (S)-2,10-dimethyl-7-(6-(3-(4-methylpiperidin-1-yl)propoxy)pyridin-3-yl)-2,8,9,10-tetrahydro-1H-2,4,8,10a-tetraazanaphtho[2,1,8-cde]azulen-1(2H)-one] | 0.33 nM | 0.33 nM | – | – | – | – | – | – | – | – | higher than that of AZD1390 | 2.71 nM | higher than that of AZD1390
Cn1c(=O)n2c3c4c(c(-c5ccc(OCCCN6CCCCC6)nc5)c(F)cc4ncc31)OCC2(C)C [Example A-6, 6-fluoro-2,10,10-trimethyl-7-(6-(3-(piperidin-1-yl)propoxy)pyridin-3-yl)-9,10-dihydro-8-oxa-2,4,10a-triazanaphtho[2,1,8-cde]azulen-1(2H)-one] | 0.37 nM | – | higher than those of AZD1390 | 100.4% | 163.8 ± 62.8***^### mm^3 | 0.12 ± 0.03 g | 82.4% | – | – | – | – | – | –
